Results reported in patent US20120122148A1, “Media For The Specific Detection Of Gram-Negative Bacteria Resistant To Beta-Lactam Antibiotics” (bioMerieux, SA, priority 2009, published 2012).

How the values were obtained:
Experiment in all cases: Growth and enzymatic activity on ChromID CPS-based selective media
Format in all cases: cell-based
Conditions in all cases: cefpodoxime 4 mg/l (T), cefepime 0.25 mg/l (A), cefamandole 3 mg/l (B), cefuroxime 3 mg/l (C), each with 300 mg/l cloxacillin
[1] = test system: Escherichia coli 0505101 (ESBL); set-up: Enz act.: key to the marks not given beside the values
Excerpt: (§1) Choice of strains: The inventors selected strains which make it possible to evaluate the activity of antibiotics with respect to Gram-negative species: enterobacteria and nonfermenting bacilli. In particular, ESBL-producing strains, high-level cephalosporinase-producing strains (HL Case) and strains without a particular resistance profile, termed wild-type strains, were used.
(§2) Preparation of media: The media tested were media composed of the peptone base of the ChromID CPS medium (bioMérieux ref 43541) to which were added, after autoclaving, in molten media, 300 mg/l cloxacillin and, for medium T: 4 mg/l cefpodoxime, for medium A: 0.25 mg/L of cefepime, for medium B: 3 mg/l of cefamandole and for medium C: 3 mg/l of cefuroxime.
(§3) Inoculation of media: The media are inoculated by carrying out a 3-quadrant streaking method using bacterial suspensions at 0.5 McF. The media are then incubated for 24 hours at 37° C.
(§4) Reading of media: The media are observed visually after 18 h and 24 hours of incubation, the growth density and also the colorations and coloration strengths are evaluated according to the scale below: • − or 0: absence of growth or of expression of enzymatic acitivity (i.e. no coloration) • +: weak growth, or enzymatic activity • ++: very strong growth density or strong enzymatic acitivity (very strong coloration)

[2] = test system: Enterobacter spp 9306069 (HL case); set-up: key to the marks not given beside the values
Excerpt: as §1, §2, §3, §4

[3] = test system: Escherichia coli 0411146 (ESBL); set-up: key to the marks not given beside the values
Excerpt: as §1, §2, §3, §4

[4] = test system: Enterobacter aerogenes 0502112 (ESBL); set-up: key to the marks not given beside the values
Excerpt: as §1, §2, §3, §4

[5] = test system: Klebsiella oxytoca 0502094 (ESBL); set-up: key to the marks not given beside the values
Excerpt: as §1, §2, §3, §4

[6] = test system: Proteus mirabilis 9709068 (ESBL)
Excerpt: as §1, §2, §3, §4

[7] = test system: Morganella morganii 9904104 (HL case)
Excerpt: as §1, §2, §3, §4

[8] = test system: Serratia fonticola 8001047 (Wild-type)
Excerpt: as §1, §2, §3, §4

[9] = test system: Klebsiella oxytoca 0105100 (HL case)
Excerpt: as §1, §2, §3, §4

[10] = test system: Proteus mirabilis 0105105 (HL case)
Excerpt: as §1, §2, §3, §4

[11] = test system: Proteus mirabilis 0105109 (HL case)
Excerpt: as §1, §2, §3, §4

[12] = test system: Enterobacter spp 0503037 (Wild-type)
Excerpt: as §1, §2, §3, §4

Q: With `COCC1=C(C(=O)O)N2C(=O)[C@@H](NC(=O)/C(=N\OC)c3csc(N)n3)[C@H]2SC1` [Cefpodoxime, cefpodoxime] as the compound, how does the Enz act. ([1]; 18 h at 37° C.) read?
A: ++

Q: And the Growth ([1]; 18 h at 37° C.)?
A: +

Q: And the Enz act. ([1]; 24 h at 37° C.)?
A: ++

Q: And the Growth ([1]; 24 h at 37° C.)?
A: ++

Q: What about the Enz act. ([2]; 18 h at 37° C.) of the same compound?
A: ++

Q: What about the Growth ([2]; 18 h at 37° C.) of the same compound?
A: ++

Q: What about the Enz act. ([2]; 24 h at 37° C.) of the same compound?
A: ++

Q: And the Growth ([2]; 24 h at 37° C.)?
A: ++

Q: What about the Enz act. ([3]; 18 h at 37° C.) of the same compound?
A: ++

Q: What about the Growth ([3]; 18 h at 37° C.) of the same compound?
A: ++

Q: What about the Enz act. ([3]; 24 h at 37° C.) of the same compound?
A: ++

Q: And the Growth ([3]; 24 h at 37° C.)?
A: ++

Q: What about the Enz act. ([4]; 18 h at 37° C.) of the same compound?
A: ++

Q: What about the Growth ([4]; 18 h at 37° C.) of the same compound?
A: ++

Q: What about the Enz act. ([4]; 24 h at 37° C.) of the same compound?
A: ++

Q: And the Growth ([4]; 24 h at 37° C.)?
A: ++

Q: And the Enz act. ([5]; 18 h at 37° C.)?
A: ++

Q: What about the Growth ([5]; 18 h at 37° C.) of the same compound?
A: ++

Q: What about the Enz act. ([5]; 24 h at 37° C.) of the same compound?
A: ++

Q: What about the Growth ([5]; 24 h at 37° C.) of the same compound?
A: ++

Q: And the Enz act. ([6]; 18 h at 37° C.)?
A: +

Q: And the Growth ([6]; 18 h at 37° C.)?
A: +

Q: What about the Enz act. ([6]; 24 h at 37° C.) of the same compound?
A: +

Q: What about the Growth ([6]; 24 h at 37° C.) of the same compound?
A: +

Q: What about the Enz act. ([7]; 18 h at 37° C.) of the same compound?
A: −

Q: What about the Growth ([7]; 18 h at 37° C.) of the same compound?
A: −

Q: What about the Enz act. ([7]; 24 h at 37° C.) of the same compound?
A: −

Q: And the Growth ([7]; 24 h at 37° C.)?
A: −

Q: What about the Enz act. ([8]; 18 h at 37° C.) of the same compound?
A: +

Q: What about the Growth ([8]; 18 h at 37° C.) of the same compound?
A: +

Q: What about the Enz act. ([8]; 24 h at 37° C.) of the same compound?
A: ++

Q: What about the Growth ([8]; 24 h at 37° C.) of the same compound?
A: +

Q: What about the Enz act. ([9]; 18 h at 37° C.) of the same compound?
A: ++

Q: And the Growth ([9]; 18 h at 37° C.)?
A: ++

Q: And the Enz act. ([9]; 24 h at 37° C.)?
A: ++

Q: And the Growth ([9]; 24 h at 37° C.)?
A: ++

Q: And the Enz act. ([10]; 18 h at 37° C.)?
A: −

Q: And the Growth ([10]; 18 h at 37° C.)?
A: −

Q: And the Enz act. ([10]; 24 h at 37° C.)?
A: −

Q: And the Growth ([10]; 24 h at 37° C.)?
A: −

Q: What about the Enz act. ([11]; 18 h at 37° C.) of the same compound?
A: −

Q: What about the Growth ([11]; 18 h at 37° C.) of the same compound?
A: −

Q: What about the Enz act. ([11]; 24 h at 37° C.) of the same compound?
A: −

Q: What about the Growth ([11]; 24 h at 37° C.) of the same compound?
A: −

Q: And the Enz act. ([12]; 18 h at 37° C.)?
A: ++

Q: What about the Growth ([12]; 18 h at 37° C.) of the same compound?
A: ++

Q: And the Enz act. ([12]; 24 h at 37° C.)?
A: ++

Q: And the Growth ([12]; 24 h at 37° C.)?
A: ++

Q: `CO/N=C(\C(=O)N[C@@H]1C(=O)N2C(C(=O)O)=C(COC(N)=O)CS[C@H]12)c1ccco1` [Cefuroxime, cefuroxime] was tested. Which Enz act. ([1]; 18 h at 37° C.) did it give?
A: ++

Q: What about the Growth ([1]; 18 h at 37° C.) of the same compound?
A: ++

Q: And the Enz act. ([1]; 24 h at 37° C.)?
A: ++

Q: What about the Growth ([1]; 24 h at 37° C.) of the same compound?
A: ++

Q: And the Enz act. ([2]; 18 h at 37° C.)?
A: ++

Q: And the Growth ([2]; 18 h at 37° C.)?
A: ++

Q: What about the Enz act. ([2]; 24 h at 37° C.) of the same compound?
A: ++

Q: What about the Growth ([2]; 24 h at 37° C.) of the same compound?
A: ++

Q: What about the Enz act. ([3]; 18 h at 37° C.) of the same compound?
A: ++

Q: And the Growth ([3]; 18 h at 37° C.)?
A: ++

Q: What about the Enz act. ([3]; 24 h at 37° C.) of the same compound?
A: ++

Q: And the Growth ([3]; 24 h at 37° C.)?
A: ++

Q: And the Enz act. ([4]; 18 h at 37° C.)?
A: ++

Q: And the Growth ([4]; 18 h at 37° C.)?
A: ++

Q: And the Enz act. ([4]; 24 h at 37° C.)?
A: ++

Q: And the Growth ([4]; 24 h at 37° C.)?
A: ++

Q: And the Enz act. ([5]; 18 h at 37° C.)?
A: ++

Q: What about the Growth ([5]; 18 h at 37° C.) of the same compound?
A: ++

Q: And the Enz act. ([5]; 24 h at 37° C.)?
A: ++

Q: What about the Growth ([5]; 24 h at 37° C.) of the same compound?
A: ++

Q: And the Enz act. ([6]; 18 h at 37° C.)?
A: +

Q: And the Growth ([6]; 18 h at 37° C.)?
A: +

Q: What about the Enz act. ([6]; 24 h at 37° C.) of the same compound?
A: ++

Q: What about the Growth ([6]; 24 h at 37° C.) of the same compound?
A: +

Q: And the Enz act. ([7]; 18 h at 37° C.)?
A: −

Q: And the Growth ([7]; 18 h at 37° C.)?
A: −

Q: And the Enz act. ([7]; 24 h at 37° C.)?
A: −

Q: What about the Growth ([7]; 24 h at 37° C.) of the same compound?
A: −

Q: And the Enz act. ([8]; 18 h at 37° C.)?
A: ++

Q: What about the Growth ([8]; 18 h at 37° C.) of the same compound?
A: ++

Q: And the Enz act. ([8]; 24 h at 37° C.)?
A: ++

Q: What about the Growth ([8]; 24 h at 37° C.) of the same compound?
A: ++

Q: And the Enz act. ([9]; 18 h at 37° C.)?
A: ++

Q: What about the Growth ([9]; 18 h at 37° C.) of the same compound?
A: +

Q: What about the Enz act. ([9]; 24 h at 37° C.) of the same compound?
A: ++

Q: What about the Growth ([9]; 24 h at 37° C.) of the same compound?
A: ++

Q: And the Enz act. ([10]; 18 h at 37° C.)?
A: −

Q: What about the Growth ([10]; 18 h at 37° C.) of the same compound?
A: −

Q: And the Enz act. ([10]; 24 h at 37° C.)?
A: −

Q: And the Growth ([10]; 24 h at 37° C.)?
A: −

Q: And the Enz act. ([11]; 18 h at 37° C.)?
A: ++

Q: And the Growth ([11]; 18 h at 37° C.)?
A: +

Q: And the Enz act. ([11]; 24 h at 37° C.)?
A: ++

Q: What about the Growth ([11]; 24 h at 37° C.) of the same compound?
A: +

Q: What about the Enz act. ([12]; 18 h at 37° C.) of the same compound?
A: ++

Q: What about the Growth ([12]; 18 h at 37° C.) of the same compound?
A: ++

Q: And the Enz act. ([12]; 24 h at 37° C.)?
A: ++

Q: And the Growth ([12]; 24 h at 37° C.)?
A: ++
